Measured values published in US20240148821A1, “PHARMACEUTICAL USE OF CYCLIC PEPTIDE COMPOUND” (CHUGAI SEIYAKU KABUSHIKI KAISHA, priority 2021, published 2024).
Numbered stars: 1 amine (or outer) side, 2 acyl side, 3 side chain; on linkers, the order of the positions; unused ones are H or OH. Bridge positions count the residues as written; N and C are the ends. Square brackets hold non-standard residues; d marks the D form. Peptide text beside a SMILES is read from it. * marks the point of attachment. hPhe(3,5-F2-4-CF3) = N[C@@H](CCc1cc(F)c(C(F)(F)F)c(F)c1)C(=O)O; hPhe(3-Cl-4-CF3) = N[C@@H](CCc1ccc(C(F)(F)F)c(Cl)c1)C(=O)O; hPhe(3-F,4-CF3) = N[C@@H](CCc1ccc(C(F)(F)F)c(F)c1)C(=O)O; NEtPhe(4-CF3) = CCN[C@@H](Cc1ccc(C(F)(F)F)cc1)C(=O)O; NMePhe(4-CF3) = CN[C@@H](Cc1ccc(C(F)(F)F)cc1)C(=O)O; NMeAbu(4,4,4-F3) = CN[C@@H](CC(F)(F)F)C(=O)O; NMePhe(4-Me) = CN[C@@H](Cc1ccc(C)cc1)C(=O)O; NMeNle(6-CHF2) = CN[C@@H](CCCCC(F)F)C(=O)O; NMedβ3hAla = C[C@H](CC(=O)[*:2])N(C)[*:1]; NMeAla(cPent) = CN[C@@H](CC1CCCC1)C(=O)O; NMeGly(cPent) = CN[C@H](C(=O)O)C1CCCC1; NMeCha = CN[C@@H](CC1CCCCC1)C(=O)O; Hyp = O=C(O)[C@@H]1C[C@@H](O)CN1; NMeChg = CN[C@H](C(=O)O)C1CCCCC1; NMeI = CC[C@H](C)[C@H](NC)C(=O)O; NMeT = CN[C@H](C(=O)O)[C@@H](C)O; NMeD = CN[C@@H](CC(=O)O)C(=O)O; NMeL = CN[C@@H](CC(C)C)C(=O)O; NMeNva = CCC[C@H](NC)C(=O)O; NMeV = CN[C@H](C(=O)O)C(C)C; d(β3hA) = C[C@@H](N)CC(=O)O; NMeS = CN[C@@H](CO)C(=O)O; NMeA = CN[C@@H](C)C(=O)O; Piperidide = C1CCN(*)CC1; Pyrrolidide = C1CCN(*)C1; Ac5c = NC1(C(=O)O)CCCC1; Aze = O=C(O)[C@@H]1CCN1; Aib = CC(C)(N)C(=O)O; Cyclopropyl = C1CC1*; Bn = c1ccc(C*)cc1; Sar = CNCC(=O)O; Propyl = CCC*

What was measured:
[1] = system: Human pancreatic cancer cell line AsPC-1 (G12D mutation Kras); assay: AsPC-1 cell growth inhibition (AsPC-1 CGI); assay type: cell-based; details: read-out: AsPC-1 cell growth inhibition, 50% growth inhibitory concentration (IC50 value); 96 hours, CellTiter-Glo, values classified in ranges
Experimental: Test compounds were serially dilated with dimethyl sulfoxide, and 200 nL was then dispensed to a U-bottom 96-well plate using Labcyte Echo. […] The cell suspension was dispensed to a. plate containing a test compound at 100 μL per well and incubated at 37° C. in a 5% carbon dioxide gas incubator. 96 hours later, 80 μL of CellTiter-Glo (Promega) was added to each well and fluorescence was measured.

[2] = target: protein-protein interaction between Kras and SOS1 (biotin-tagged human Kras loaded with GDP, His-tagged human SOS1) (Homo sapiens (Human), UniProt P01116, G12D); assay: Protein-protein interaction inhibition between Kras and SOS1 (KrasG12D-SOS PPI) using AlphaScreen; assay type: biochemical; details: AlphaScreen; biotin-tagged human Kras loaded with GDP, His-tagged human SOS1; read-out: KRAS G12D-SOS PPI IC50;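 also: kras produced in E. coli, Ni-coupled donor beads and streptavidin acceptor beads, excitation 680 nm with emission detected at 520–620 nm via singlet oxygen transfer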

SMILES	IC50 [1] [nM]	IC50 [2] [nM]
CC[C@H](C)[C@@H]1NC(=O)[C@H](CC(C)C)N(C)C(=O)C[C@@H](C(=O)N2CCCC2)N(C)C(=O)[C@H]([C@@H](C)CC)N(C)C(=O)C2(CCCC2)NC(=O)[C@@H]2CCCN2C(=O)[C@H](CCc2ccc(C(F)(F)F)c(Cl)c2)NC(=O)CN(C)C(=O)[C@H](Cc2ccc(C(F)(F)F)cc2)N(CC)C(=O)[C@@H]2CCN2C(=O)[C@H](C)N(C)C1=O [Compound 1319] ([NMeL]I[NMeA][Aze][NEtPhe(4-CF3)][Sar][hPhe(3-Cl-4-CF3)]P[Ac5c][NMeI][NMeD]-Pyrrolidide; lactam N-11)	≤ 20	0.82
CC[C@H](C)[C@@H]1NC(=O)[C@H](CC(C)C)N(C)C(=O)C[C@@H](C(=O)N2CCCCC2)N(C)C(=O)[C@H](C2CCCCC2)N(C)C(=O)C2(CCCC2)NC(=O)[C@H]([C@@H](C)O)N(C)C(=O)[C@H](CCc2ccc(C(F)(F)F)c(Cl)c2)NC(=O)CN(C)C(=O)[C@H](CC2CCCCC2)N(C)C(=O)CN(C)C(=O)CN(C)C1=O [Compound 118] ([NMeL]I[Sar][Sar][NMeCha][Sar][hPhe(3-Cl-4-CF3)][NMeT][Ac5c][NMeChg][NMeD]-Piperidide; lactam N-11)	> 500	1.9
CC[C@H](C)[C@@H]1NC(=O)[C@H](CC(C)C)N(C)C(=O)C[C@@H](C(=O)N2CCCCC2)N(C)C(=O)[C@H](C(C)C)N(C)C(=O)C2(CCCC2)NC(=O)[C@@H]2CCCN2C(=O)[C@H](CCc2ccc(C(F)(F)F)c(Cl)c2)NC(=O)CN(C)C(=O)[C@H](CC2CCCCC2)N(C)C(=O)[C@@H]2CCN2C(=O)[C@H](CC2CCCCC2)N(C)C1=O [Compound 1574] ([NMeL]I[NMeCha][Aze][NMeCha][Sar][hPhe(3-Cl-4-CF3)]P[Ac5c][NMeV][NMeD]-Piperidide; lactam N-11)	> 500	35
CC[C@H](C)[C@@H]1NC(=O)[C@H](CC(C)C)N(C)C(=O)C[C@@H](C)N(C)C(=O)[C@H](C2CCCC2)N(C)C(=O)C2(CCCC2)NC(=O)[C@@H]2CCCN2C(=O)[C@H](CCc2ccc(C(F)(F)F)c(Cl)c2)NC(=O)CN(C)C(=O)[C@H](Cc2ccc(C)cc2)N(C)C(=O)[C@@H]2CCN2C(=O)[C@H](C)N(C)C1=O [Compound 1750] (cyclo([Ac5c][NMeGly(cPent)][NMedβ3hAla][NMeL]I[NMeA][Aze][NMePhe(4-Me)][Sar][hPhe(3-Cl-4-CF3)]P))	≤ 20	1.3
CC[C@H](C)[C@@H]1NC(=O)[C@H](CC(C)C)N(C)C(=O)C[C@@H](C)NC(=O)[C@H](CC(C)C)N(C)C(=O)C2(CCCC2)NC(=O)[C@@H]2C[C@@H](OCc3ccccc3)CN2C(=O)[C@H](CCc2ccc(C(F)(F)F)c(F)c2)NC(=O)CN(C)C(=O)[C@H](CC2CCCCC2)N(C)C(=O)CN(C)C(=O)CN(C)C1=O [Compound 2116, (3S,9S,18S,21S,25R,28S,34S,36R)-36-benzyloxy-9-(cylohexylmethyl)-3-[2-[3-fluoro-4-(trifluoromethyl)phenyl]ethyl]-21,28-diisobutyl-7,10,13,16,22,25,29-heptamethyl-18-[(1S)-1-methylpropyl]spiro[1,4,7,10,13,16,19,22,26,29,32-undecazabicyclo[32.3.0]heptatriacontane-31,1′-cyclopentane]-2,5,8,11,14,17,20,23,27,30,33-undecone] (cyclo([Ac5c][NMeL][d(β3hA)][NMeL]I[Sar][Sar][NMeCha][Sar][hPhe(3-F,4-CF3)][Hyp](Bn)))	> 500	110
CC[C@H](C)[C@@H]1NC(=O)[C@H](CC(C)C)N(C)C(=O)C[C@@H](C)NC(=O)[C@H](C2CCCC2)N(C)C(=O)[C@@H](C)NC(=O)[C@@H]2CCCN2C(=O)[C@H](CCc2ccc(C(F)(F)F)c(Cl)c2)NC(=O)CN(C)C(=O)[C@H](Cc2ccc(C)cc2)N(C)C(=O)[C@@H]2CCN2C(=O)[C@H](C)N(C)C1=O [Compound 1222] (cyclo([Aze][NMePhe(4-Me)][Sar][hPhe(3-Cl-4-CF3)]P[dA][NMeGly(cPent)][d(β3hA)][NMeL]I[NMeA]))	> 500	25
CC[C@H](C)[C@@H]1NC(=O)[C@H](CC2CCCC2)N(C)C(=O)C[C@@H](C(=O)N(C)C)N(C)C(=O)[C@H]([C@@H](C)CC)N(C)C(=O)C2(CCCC2)NC(=O)[C@@H]2CCCN2C(=O)[C@H](CCc2ccc(C(F)(F)F)c(Cl)c2)NC(=O)CN(C)C(=O)[C@H](Cc2ccc(C)cc2)N(C)C(=O)[C@@H]2CCN2C(=O)[C@H](C)N(C)C1=O [Compound 400] ([NMeAla(cPent)]I[NMeA][Aze][NMePhe(4-Me)][Sar][hPhe(3-Cl-4-CF3)]P[Ac5c][NMeI][NMeD]-NMe2; lactam N-11)	≤ 20	0.85
CC[C@H](C)[C@@H]1NC(=O)[C@H](CC(C)C)N(C)C(=O)C[C@@H](C)N(C)C(=O)[C@H]([C@@H](C)CC)N(C)C(=O)C2(CCCC2)NC(=O)[C@@H]2CCCN2C(=O)[C@H](CCc2cc(F)c(C(F)(F)F)c(F)c2)NC(=O)CN(C)C(=O)[C@H](Cc2ccc(C(F)(F)F)cc2)N(C)C(=O)[C@@H]2CCN2C(=O)[C@H](C)N(C)C1=O [Compound 907] (cyclo([Ac5c][NMeI][NMedβ3hAla][NMeL]I[NMeA][Aze][NMePhe(4-CF3)][Sar][hPhe(3,5-F2-4-CF3)]P))	≤ 20	1.4
CC[C@H](C)[C@@H]1NC(=O)[C@H](CC(C)C)N(C)C(=O)C[C@@H](C)NC(=O)[C@H](CC(C)C)N(C)C(=O)C(C)(C)NC(=O)[C@H](CC(C)C)N(C)C(=O)[C@H](CCc2ccc(C(F)(F)F)c(Cl)c2)NC(=O)CN(C)C(=O)[C@H](CCCCC(F)F)N(C)C(=O)CN(C)C(=O)CN(C)C1=O [Compound 1451] (cyclo([Aib][NMeL][d(β3hA)][NMeL]I[Sar][Sar][NMeNle(6-CHF2)][Sar][hPhe(3-Cl-4-CF3)][NMeL]))	> 500	20
CC(C)C[C@H]1C(=O)N[C@@H](COC2CC2)C(=O)N(C)[C@@H](C)C(=O)N2CC[C@H]2C(=O)N(C)[C@@H](CC2CCCCC2)C(=O)N(C)CC(=O)N[C@@H](CCc2ccc(C(F)(F)F)c(Cl)c2)C(=O)N2CCC[C@H]2C(=O)NC2(CCCC2)C(=O)N(C)[C@@H](C(C)C)C(=O)N(C)[C@H](C(=O)N2CCCCC2)CC(=O)N1C [Compound 1811] ([NMeL]S(Cyclopropyl)[NMeA][Aze][NMeCha][Sar][hPhe(3-Cl-4-CF3)]P[Ac5c][NMeV][NMeD]-Piperidide; lactam N-11)	> 500	56
CCC[C@H]1C(=O)N[C@@H]([C@@H](C)CC)C(=O)N(C)CC(=O)N(C)CC(=O)N(C)[C@@H](Cc2ccc(C)cc2)C(=O)N(C)CC(=O)N[C@@H](CCc2cc(F)c(C(F)(F)F)c(F)c2)C(=O)N2C[C@H](OCC)C[C@H]2C(=O)NC2(CCCC2)C(=O)N(C)[C@@H](C2CCCCC2)C(=O)N(C)[C@H](C(=O)N2CCCC2)CC(=O)N1C [Compound 1224] ([NMeNva]I[Sar][Sar][NMePhe(4-Me)][Sar][hPhe(3,5-F2-4-CF3)][Hyp](Et)[Ac5c][NMeChg][NMeD]-Pyrrolidide; lactam N-11)	≤ 20	0.67
CC[C@H](C)[C@@H]1NC(=O)[C@H]([C@@H](C)O)N(C)C(=O)C[C@@H](C(=O)N2CCCCC2)N(C)C(=O)[C@H](C(C)C)N(C)C(=O)C2(CCCC2)NC(=O)[C@@H]2CCCN2C(=O)[C@H](CCc2ccc(C(F)(F)F)c(Cl)c2)NC(=O)CN(C)C(=O)[C@H](CC2CCCCC2)N(C)C(=O)[C@@H]2CCN2C(=O)[C@H](C)N(C)C1=O [Compound 91] ([NMeT]I[NMeA][Aze][NMeCha][Sar][hPhe(3-Cl-4-CF3)]P[Ac5c][NMeV][NMeD]-Piperidide; lactam N-11)	> 500	1.5
CCO[C@@H]1C[C@H]2C(=O)NC3(CCCC3)C(=O)N(C)[C@@H](C3CCCC3)C(=O)N(C)[C@H](C)CC(=O)N(C)[C@@H](CC(C)C)C(=O)N[C@@H]([C@@H](C)CC)C(=O)N(C)[C@@H](C)C(=O)N3CC[C@H]3C(=O)N(C)[C@@H](Cc3ccc(C(F)(F)F)cc3)C(=O)N(C)CC(=O)N[C@@H](CCc3ccc(C(F)(F)F)c(Cl)c3)C(=O)N2C1 [Compound 640] (cyclo([Ac5c][NMeGly(cPent)][NMedβ3hAla][NMeL]I[NMeA][Aze][NMePhe(4-CF3)][Sar][hPhe(3-Cl-4-CF3)][Hyp](Et)))	≤ 20	0.86
CC[C@H](C)[C@@H]1NC(=O)[C@H](CC(C)C)N(C)C(=O)C[C@@H](C(=O)N2CCCCC2)N(C)C(=O)[C@H](C(C)C)N(C)C(=O)C2(CCCC2)NC(=O)[C@@H]2CCCN2C(=O)[C@H](CCc2ccc(C(F)(F)F)c(Cl)c2)NC(=O)CN(C)C(=O)[C@H](CC(F)(F)F)N(C)C(=O)[C@@H]2CCN2C(=O)[C@H](C)N(C)C1=O [Compound 1665] ([NMeL]I[NMeA][Aze][NMeAbu(4,4,4-F3)][Sar][hPhe(3-Cl-4-CF3)]P[Ac5c][NMeV][NMeD]-Piperidide; lactam N-11)	> 500	19
CCCOC[C@H]1C(=O)N(C)CC(=O)N[C@@H](CCc2ccc(C(F)(F)F)c(Cl)c2)C(=O)N2CCC[C@H]2C(=O)NC2(CCCC2)C(=O)N(C)[C@@H](C2CCCC2)C(=O)N(C)[C@H](C(=O)N2CCCC2)CC(=O)N(C)[C@@H](CC(C)C)C(=O)N[C@@H]([C@@H](C)CC)C(=O)N(C)[C@@H](C)C(=O)N2CC[C@H]2C(=O)N1C [Compound 836] ([NMeL]I[NMeA][Aze][NMeS](Propyl)[Sar][hPhe(3-Cl-4-CF3)]P[Ac5c][NMeGly(cPent)][NMeD]-Pyrrolidide; lactam N-11)	≤ 20	0.66
